Reference: patent US9125877B2, “Use of kauranes compounds in the manufacture of medicament” (priority 2004, dated 2015)
Entries after “also recorded” stand apart in the source; their conditions may differ. Like-named read-outs stand apart in the source and are kept apart here.

Legend:
[1] = tested on: ventricular tachycardia and fibrillation caused by coronary ischemia; assay: Arrhythmia (VT, VF) during cardiac ischemia by coronary occlusion; assay type: in vivo, Sprague-Dawley rats; details: for VF Duration / VT Duration / VTorVF Onset / VT + VF score: occlusion of coronary for 20 min; for VT + VF score: score = (duration of VT × 1) + (duration of VF × 2)
Experimental: (§1) Rats were anesthetized, the tracheotomy was performed and an intubation cannula was connected to a respirator for artificial respiration. Arterial blood pressure monitored by a pressure gauge via a femoral artery. A Miller pressure gauge was intervened into left ventricular chamber via a carotid artery to monitor ventricular pressure. The pressure gauges were connected to a Power-lab biological real-time data recording system. ECG was monitored and recorded via subcutaneous needle probes on the arms of rats. The parameters recorded including: Mean arterial blood pressure (MAP), left ventricular systolic pressure (LVSP), the first derivatives of left ventricular pressure (±dp/dtMax), left ventricular diastolic pressure (LVDP), left ventricular end diastolic pressure (LVEDP) and heart rate (HR).
(§2) The chest was open by a left-side thoracotomy between the 4th intercostals space. The pericardium was opened to expose the heart. A stainless needle and a silk suture were placed around the left coronary artery (LCD) and a loose snare ligation was formed. After complete the surgery, the animals were allowed to stabilize for 10 minus before the occlusion of LCD by tightening the snare. A success in occlusion was associated with an area of pericardial cyanosis, an elevation of T wave or ST segment in ECG. The ischemia period of occlusion was maintained from 20 or 30 minus. Cardiac reperfusion was then achieved by releasing of the snare and was confirmed by hyperemic blushing of the previous ischemic area of cyanosis and gradually recovery of the changes in ECG signals. The reperfusion period was maintained for 50 to 80 minus. ECG, MAP and other cardiodynamic data were recorded before the ischemia (control), and during the periods of ischemia and reperfusion.
Arrhythmia of ventricular tachycardia (VT) and fibrillation (VF) are the main causes of death in clinic. In the control group during ischemia, VT occurred in all of the 11 animals, VF occurred in 10 out of the 11 animals, and 3 out of the 11 animals were dead due to continuation of VF. […] The results from both control and testing groups during cardiac ischemia including the frequency of occurrence, onset time and duration of the VT and VF are shown in table 3.

[2] = tested on: ischemic heart (occlusion of left coronary artery and reperfusion); assay: Cardiodynamic parameters in the cardiac ischemia-reperfusion rat model; assay type: in vivo, Sprague-Dawley rats; details: stevioside 10 to 15 mg/kg, rats
[3] = tested on: ischemic heart (occlusion of left coronary artery and reperfusion); assay: as above; assay type: in vivo, Sprague-Dawley rats
Experimental: as §1, §2
Control group: occlusion of coronary/ischemia-reperfusion. Testing group: occlusion of coronary/ischemia-reperfusion plus compound A or B
In part of the experiments, the time periods for occlusion and release of coronary were set for 30 min and 80 min, in order to enhance the results of ischemia-reperfusion.

ischemic myocardium = assay: Infarct size of myocardium after ischemia-reperfusion (Evans blue); assay type: in vivo, Sprague-Dawley rats; details: compound A 1 mg/kg; control 58.6±4.7%; weight of infarct tissue/(infarct + ischemia tissue)
Description: as §2, with “The reperfusion period was maintained for 50 to 80 minus.” left out
Determination of the infarct size of myocardium: In both control and testing groups, After the end of reperfusion period, the coronary was occluded, Evans blue dye (1%, 0.5 ml) was injected to determine the ischemic and non-ischemic area of myocardium. […] After weighing the respective tissue samples, the infarction size of myocardium was calculated and express as following: Size of infarction=weight of infarct tissue/(weight of infarct tissue+weight of ischemia tissue) x %.

[4] = tested on: ischemic myocardium, myocytes and mitochondria; assay: Morphology of ischemic myocardium under light and electron microscope; assay type: in vivo, Sprague-Dawley rats
Experimental: At the end of experiments, the ischemic and non-ischemic normal myocardium were excised at the ischemic region respectively from both control or testing groups (compound A 1 mg/kg), and from sham-operated animals at respective region of the heart. The tissues were fixed with paraformaldehyde, embedded in wax, cut into thin or ultra-thin sections, stained and viewed under light or electron microscope.
Analogously to Example 5 except the testing group treated with compound B (2 mg/kg). Myocardiac tissues from non-ischemia, ischemia and testing group animals were excised and prepared as noted above. Myocytes and its ultra structure were examined under light and transmission electron microscope. […] The densities of crestae and matrix appear normal, and the granules normally distributed within mitochondria. […] The histological results were similar to the results from the animal treated with compound A (1 mg/kg) and indicate significant protective effects of compound B on myocardium by alleviating the ischemic damage of myocytes and mitochondria.

cerebral ischemia = assay: Decapitated mouse model of brain ischemia (mouth-opening); assay type: in vivo, mice
Experimental: Decapitated mouse model: The mouse first decapitated and the movement of mouth opening was monitored as a sign of respiration. The frequency and duration of mouth-opening was used as an index of cerebral function after decapitation.
The animals were randomly assigned into three groups (n=8, equal number in sex): Control group, only vehicle saline were given; Testing group, compound A (4 mg/kg) dissolved in saline were given; and Positive control group, a reference compound Edaravone (8 mg/kg) dissolved in saline were given, Edaravone is an anti-oxidation drug and has protective effects on neuronal injury (Granl A. et al. 1996).
Vehicle or compounds were administrated intraperitonealy 30 minus before decapitation.

[5] = tested on: ischemic heart (left anterior descending coronary artery); assay: Pig coronary ischemia-reperfusion by balloon-tip catheter in LAD; assay type: in vivo
Description: At an extremely high dose, the said effects may be abrogated. In a pig study in the invention, a balloon-tip catheter was intervened into left anterior descending coronary artery (LAD) under the guidance of X-ray angiograph. Coronary ischemia and reperfusion was reproduced by inflating or deflating the balloon. […] Kaurene compounds at this large dose may initiate an opposite or undesired effect which can diminish or override the therapeutic effects mentioned above.

Solubility in water = assay type: physicochemical; details: free acid, before salt formation
Experimental: The salts can be sodium, potassium or other inorganic salts. A preferred method is to use sodium. The method is the following: A solution of […] of NaOH is prepared. The liquid sodium salt of compound A or B was formed by dissolving 1 g of the compound A or B into 10 ml of the above NaOH solution and adjusting the PH to neutral. This liquid sodium salt can be further diluted with sterile water or mixed with pharmaceutical carrier at needed concentration for parenteral administration. It can be stored at room temperature.

[6] = No obvious toxicity dose, administered intravenously (the invention); assay type: in vivo
mice = details: cited from earlier work
[7] = intravenous injection, previously reported; cited from earlier work
arterial pressure = details: 25 mg/kg intraperitoneal in rats; cited from earlier work
rats = details: cited from earlier work
[8] = reported; large amount, under certain condition in vitro; cited from earlier work
[9] = compound A 1 mg/kg i.v., before ischemia
[10] = compound A 1 mg/kg i.v., ischemia
[11] = compound A 1 mg/kg i.v., reperfusion
[12] = 4 mg/kg intraperitoneal 30 min before decapitation
[13] = 8 mg/kg intraperitoneal 30 min before decapitation
[14] = compound B 2 mg/kg, before ischemia
[15] = compound B 2 mg/kg, during ischemia
[16] = compound B 2 mg/kg, during reperfusion

C=C1C[C@@]23CC[C@H]4[C@@](C)(CCC[C@@]4(C)C(=O)O[C@@H]4O[C@H](CO)[C@@H](O)[C@H](O)[C@H]4O)[C@@H]2CC[C@]1(O[C@@H]1O[C@H](CO)[C@@H](O)[C@H](O)[C@H]1O[C@@H]1O[C@H](CO)[C@@H](O)[C@H](O)[C@H]1O)C3 [stevioside, reference compound]
therapeutic effects on arrhythmia ([1]; stevioside 10 to 15 mg/kg, rats): No significant therapeutic effects
therapeutic effects on cardiac contractile function [2]: No significant therapeutic effects

C[C@@]12CC[C@@H]3[C@@](CC[C@H]4[C@@]3(C)CCC[C@@]4(C)C(=O)O)(CC1=O)C2 [Compound A, (4α,8β,13β)-13-methyl-16-oxo-17-norkauran-18-oic acid]
hypotension effect ([3]; 1 mg/kg intravenous in rats): no such hypotension effect
+dp/dt Max.LVSP [3, 9]: 8543 ± 486 mmHg/sec
HR [3, 9]: 367 ± 13 beat/min
LVSP [3, 9]: 111 ± 4 mmHg
MAP [3, 9]: 73 ± 3 mmHg
+dp/dt Max.LVSP [3, 10]: 7468 ± 558 mmHg/sec
HR [3, 10]: 375 ± 10 beat/min
LVSP [3, 10]: 103 ± 3 mmHg
MAP [3, 10]: 70 ± 5 mmHg
+dp/dt Max.LVSP [3, 11]: 8431 ± 340 mmHg/sec
HR [3, 11]: 394 ± 7 beat/min
LVSP [3, 11]: 114 ± 5 mmHg
MAP [3, 11]: 76 ± 3 mmHg
VF Duration ([1]; 1 mg/kg): 1 s
VT Duration ([1]; 1 mg/kg): 12 + 6 sec
VTorVF Onset ([1]; 1 mg/kg): 730 + 166 sec
VT + VF score ([1]; 1 mg/kg): 14 + 7
survival of cardiac ischemia ([1]; compound A 1 mg/kg, control: 3 out of 11 dead due to continuation of VF): all the animal survived
size of infarction after ischemia (ischemic myocardium): 45.8±2.9%
morphology of ischemic myocardium under light microscope ([4]; compound A 1 mg/kg, 100× microscope): Destruction of myocytes was not evident
ultra structure of ischemic myocytes under electron microscope ([4]; compound A 1 mg/kg, ×12000, comparing with non-ischemia myocytes): no observable damages of the myocytes and mitochondria
Duration of mouth-opening (cerebral ischemia; [12]): 22.9 ± 5 s
Frequency of mouth-opening (cerebral ischemia; [12]): 14.0 ± 3.2
sever arrhythmia induced by ischemia ([5]; pig pretreated at a small dose): effectively prevented
cardiac contractile function ([5]; pig, extremely high dose (20 times more) administered via LAD): significant decrease in cardiac contractile function
effects on heart before ischemia ([5]; pig, small dose): no observable effects on heart
solubility in water (Solubility in water): not Readily Dissolved in Water
no obvious toxicity dose [6]: up to 40 mg/kg
minimum oral lethal dose (mice): 5060 mg/kg
median lethal dose (LD50) [7]: 650 mg/kg
effect of a large dose on vessels and arterial pressure (arterial pressure): vasodilation and lowering of arterial pressure
LD50 (rats; intraperitoneal, rats): 617 mg/kg
median lethal dose (LD50) (rats; intravenous injection, rats): 503 mg/kg
major symptoms of toxicity at lethal dose (rats; lethal dose): vasodilation and renal failure
minimum oral lethal dose (rats; oral, rats): 3160 mg/kg
oral median lethal dose (LD50) (rats; oral, rats): 3160 mg/kg

CC1=NN(c2ccccc2)C(=O)C1 [Edaravone, reference compound]
Duration of mouth-opening (cerebral ischemia; [13]): 17.1 ± 4.3 s
Frequency of mouth-opening (cerebral ischemia; [13]): 13.1 ± 2.4

C=C1C[C@@]23CC[C@H]4[C@@](C)(CCC[C@@]4(C)C(=O)O)[C@@H]2CC[C@]1(O)C3 (single isomer, unassigned; ent-13) [Compound B, ent-13-hydroxykaur-16-en-18-oic acid]
+dp/dtMax. LVSP [3, 14]: 8609±543 mmHg/sec
LVSP [3, 14]: 112±5 mmHg
+dp/dtMax. LVSP [3, 15]: 7592±433 mmHg/sec
LVSP [3, 15]: 104±4 mmHg
+dp/dtMax. LVSP [3, 16]: 8362±498 mmHg/sec
LVSP [3, 16]: 110±4 mmHg
VF Duration ([1]; 2 mg/kg): 1 s
VT Duration ([1]; 2 mg/kg): 21 + 12 sec
VTorVF Onset ([1]; 2 mg/kg): 660 + 178 sec
VT + VF score ([1]; 2 mg/kg): 22 + 13
animals dead during cardiac ischemia ([1]; compound B 2 mg/kg, n=5, control: 3 out of 11 dead): none of the animals are dead
morphology of ischemic myocardium under light and transmission electron microscope ([4]; compound B 2 mg/kg, comparing with non-ischemia myocytes): Damages of both myocytes and mitochondria were not evident
Duration of mouth-opening (cerebral ischemia; [13]): 20.1 ± 4.1 s
Frequency of mouth-opening (cerebral ischemia; [13]): 12.8 ± 2.7
solubility in water (Solubility in water): not Readily Dissolved in Water
mutagenic effects [8]: certain mutagenic effects; also recorded: may be mutagenic
oral median lethal dose (LD50) (rats; rat, in vivo, po): 1500 mg/kg
